Tests used:
[1] = compound: Cc1nn(C)c(COc2ccc(N3CCN(S(=O)(=O)N(C)C)CC3)cc2)c1-c1cccc2c(CCCOc3cccc4ccccc34)c(C(=O)O)n(CCN3CCOCC3)c12
Ceritinib/LDK378 = compound: Cc1cc(Nc2ncc(Cl)c(Nc3ccccc3S(=O)(=O)C(C)C)n2)c(OC(C)C)cc1C1CCNCC1 [Ceritinib/LDK378]
LEE011/Ribociclib [2] = compound: T1, CN(C)C(=O)c1cc2cnc(Nc3ccc(N4CCNCC4)cn3)nc2n1C1CCCC1 [LEE011/Ribociclib]
Doxorubicin = compound: COc1cccc2c1C(=O)c1c(O)c3c(c(O)c1C2=O)C[C@@](O)(C(=O)CO)C[C@@H]3O[C@H]1C[C@H](N)[C@H](O)[C@H](C)O1 [Doxorubicin]
[3] = compound: CCc1cnn2c(NCc3ccc[n+]([O-])c3)cc(N3CCCC[C@H]3CCO)nc12
Pictilisib/GDC0941 = compound: CS(=O)(=O)N1CCN(Cc2cc3nc(-c4cccc5[nH]ncc45)nc(N4CCOCC4)c3s2)CC1 [Pictilisib/GDC0941]
BSJ-03-123 = compound: CC(=O)c1c(C)c2cnc(Nc3ccc(N4CCN(CCOCCOCCOCCNC(=O)COc5cccc6c5C(=O)N(C5CCC(=O)NC5=O)C6=O)CC4)cn3)nc2n(C2CCCC2)c1=O [BSJ-03-123]; test: increase in dead-cell fraction, 72 h; higher = more death;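 further: breast cancer cell lines in 384-well plates, stained with Hoechst plus LIVE/DEAD far red dye and imaged, cells above an LDR intensity threshold counted dead, Hoechst-negative corpses included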
[4] = compound: CCN1CCN(Cc2ccc(Nc3ncc(F)c(-c4cc(F)c5nc(C)n(C(C)C)c5c4)n3)nc2)CC1; test: as above
LEE011/Ribociclib [5] = compound: T1, LEE011/Ribociclib; test: as above
[6] = compound: CC(=O)c1c(C)c2cnc(Nc3ccc(N4CCNCC4)cn3)nc2n(C2CCCC2)c1=O; test: as above
Neratinib/HKI272 = compound: CCOc1cc2ncc(C#N)c(Nc3ccc(OCc4ccccn4)c(Cl)c3)c2cc1NC(=O)/C=C/CN(C)C [Neratinib/HKI272]; test: as above
THZ531 = compound: CN(C)C/C=C/C(=O)Nc1ccc(C(=O)N2CCC[C@@H](Nc3ncc(Cl)c(-c4c[nH]c5ccccc45)n3)C2)cc1 [THZ531]; test: as above
YKL-5-124 = compound: C=CC(=O)Nc1ccc(C(=O)Nc2[nH]nc3c2CN(C(=O)N[C@H](CN(C)C)c2ccccc2)C3(C)C)cc1 [YKL-5-124]; test: as above
[7] = compound: CCc1cnn2c(NCc3ccc[n+]([O-])c3)cc(N3CCCC[C@H]3CCO)nc12; test: as above
THZ1 = compound: CN(C)C/C=C/C(=O)Nc1ccc(C(=O)Nc2cccc(Nc3ncc(Cl)c(-c4c[nH]c5ccccc45)n3)c2)cc1 [THZ1]; test: as above
Flavopiridol = compound: CN1CC[C@H](c2c(O)cc(O)c3c(=O)cc(-c4ccccc4Cl)oc23)[C@H](O)C1 [Flavopiridol]; test: as above
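Wherever GR50, 72 h is given: breast cancer and non-malignant breast epithelial cell lines, Deep Dye Drop or Dye Drop imaging, nine half-log doses, GR normalized to time-zero plates and DMSO-only controls.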

## MDAMB468
[1]
  GR50, 72 h: > 10 µM
Ceritinib/LDK378
  GR50, 72 h: 0.767 µM
LEE011/Ribociclib [2]
  GR50, 72 h: > 10 µM
Doxorubicin
  GR50, 72 h: 0.00542 µM
[3]
  GR50, 72 h: 0.0156 µM
Pictilisib/GDC0941
  GR50, 72 h: 2.33 µM
BSJ-03-123; 0.001 µM
  increase in dead-cell fraction: -0.0103
BSJ-03-123; 0.003162 µM
  increase in dead-cell fraction: 0.0028
BSJ-03-123; 0.01 µM
  increase in dead-cell fraction: 0.0034
BSJ-03-123; 0.03162 µM
  increase in dead-cell fraction: 0.0062
BSJ-03-123; 0.1 µM
  increase in dead-cell fraction: 0.0131
BSJ-03-123; 0.3162 µM
  increase in dead-cell fraction: 0.0169
BSJ-03-123; 1 µM
  increase in dead-cell fraction: 0.0332
BSJ-03-123; 3.162 µM
  increase in dead-cell fraction: 0.0309
BSJ-03-123; 10 µM
  increase in dead-cell fraction: 0.128
[4]; 0.001 µM
  increase in dead-cell fraction: 0.0107
[4]; 0.003162 µM
  increase in dead-cell fraction: 0.0019
[4]; 0.01 µM
  increase in dead-cell fraction: -0.0006
[4]; 0.03162 µM
  increase in dead-cell fraction: -0.0012
[4]; 0.1 µM
  increase in dead-cell fraction: -0.0016
[4]; 0.3162 µM
  increase in dead-cell fraction: -0.0021
[4]; 1 µM
  increase in dead-cell fraction: 0.019
[4]; 3.162 µM
  increase in dead-cell fraction: 0.101
[4]; 10 µM
  increase in dead-cell fraction: 0.545
LEE011/Ribociclib [5]; 0.001 µM
  increase in dead-cell fraction: -0.0034
LEE011/Ribociclib [5]; 0.003162 µM
  increase in dead-cell fraction: -0.0042
LEE011/Ribociclib [5]; 0.01 µM
  increase in dead-cell fraction: 0.0065
LEE011/Ribociclib [5]; 0.03162 µM
  increase in dead-cell fraction: -0.0098
LEE011/Ribociclib [5]; 0.1 µM
  increase in dead-cell fraction: -0.0059
LEE011/Ribociclib [5]; 0.3162 µM
  increase in dead-cell fraction: -0.0074
LEE011/Ribociclib [5]; 1 µM
  increase in dead-cell fraction: -0.0071
LEE011/Ribociclib [5]; 3.162 µM
  increase in dead-cell fraction: -0.01
LEE011/Ribociclib [5]; 10 µM
  increase in dead-cell fraction: -0.0011
[6]; 0.0003162 µM
  increase in dead-cell fraction: 0.0165
[6]; 0.001 µM
  increase in dead-cell fraction: 0.0114
[6]; 0.003162 µM
  increase in dead-cell fraction: 0.0024
[6]; 0.01 µM
  increase in dead-cell fraction: -0.0003
[6]; 0.03162 µM
  increase in dead-cell fraction: 0.0031
[6]; 0.1 µM
  increase in dead-cell fraction: -0.006
[6]; 0.3162 µM
  increase in dead-cell fraction: -0.0071
[6]; 1 µM
  increase in dead-cell fraction: -0.001
[6]; 3.162 µM
  increase in dead-cell fraction: -0.0077
Neratinib/HKI272; 0.0003162 µM
  increase in dead-cell fraction: 0.0075
Neratinib/HKI272; 0.001 µM
  increase in dead-cell fraction: 0.0021
Neratinib/HKI272; 0.003162 µM
  increase in dead-cell fraction: 0.0111
Neratinib/HKI272; 0.01 µM
  increase in dead-cell fraction: 0.0196
Neratinib/HKI272; 0.03162 µM
  increase in dead-cell fraction: 0.0337
Neratinib/HKI272; 0.1 µM
  increase in dead-cell fraction: 0.0953
Neratinib/HKI272; 0.3162 µM
  increase in dead-cell fraction: 0.205
Neratinib/HKI272; 1 µM
  increase in dead-cell fraction: 0.381
Neratinib/HKI272; 3.162 µM
  increase in dead-cell fraction: 0.6
THZ531; 0.0001 µM
  increase in dead-cell fraction: -0.0128
THZ531; 0.0003162 µM
  increase in dead-cell fraction: 0.0007
THZ531; 0.001 µM
  increase in dead-cell fraction: -0.006
THZ531; 0.003162 µM
  increase in dead-cell fraction: 0.0023
THZ531; 0.01 µM
  increase in dead-cell fraction: 0.0064
THZ531; 0.03162 µM
  increase in dead-cell fraction: 0.0382
THZ531; 0.1 µM
  increase in dead-cell fraction: 0.104
THZ531; 0.3162 µM
  increase in dead-cell fraction: 0.168
THZ531; 1 µM
  increase in dead-cell fraction: 0.141
YKL-5-124; 0.001 µM
  increase in dead-cell fraction: 0.0818
YKL-5-124; 0.003162 µM
  increase in dead-cell fraction: 0.116
YKL-5-124; 0.01 µM
  increase in dead-cell fraction: 0.0906
YKL-5-124; 0.03162 µM
  increase in dead-cell fraction: 0.163
YKL-5-124; 0.1 µM
  increase in dead-cell fraction: 0.171
YKL-5-124; 0.3162 µM
  increase in dead-cell fraction: 0.183
YKL-5-124; 1 µM
  increase in dead-cell fraction: 0.231
YKL-5-124; 3.162 µM
  increase in dead-cell fraction: 0.213
YKL-5-124; 10 µM
  increase in dead-cell fraction: 0.386
[7]; 0.0001 µM
  increase in dead-cell fraction: 0.0037
[7]; 0.0003162 µM
  increase in dead-cell fraction: -0.0009
[7]; 0.001 µM
  increase in dead-cell fraction: -0.0038
[7]; 0.003162 µM
  increase in dead-cell fraction: 0.0016
[7]; 0.01 µM
  increase in dead-cell fraction: 0.0237
[7]; 0.03162 µM
  increase in dead-cell fraction: 0.245
[7]; 0.1 µM
  increase in dead-cell fraction: 0.396
[7]; 0.3162 µM
  increase in dead-cell fraction: 0.462
[7]; 1 µM
  increase in dead-cell fraction: 0.494
THZ1; 0.0001 µM
  increase in dead-cell fraction: -0.0001
THZ1; 0.0003162 µM
  increase in dead-cell fraction: -0.0124
THZ1; 0.001 µM
  increase in dead-cell fraction: -0.0067
THZ1; 0.003162 µM
  increase in dead-cell fraction: -0.0067
THZ1; 0.01 µM
  increase in dead-cell fraction: 0.0039
THZ1; 0.03162 µM
  increase in dead-cell fraction: 0.0402
THZ1; 0.1 µM
  increase in dead-cell fraction: 0.165
THZ1; 0.3162 µM
  increase in dead-cell fraction: 0.149
THZ1; 1 µM
  increase in dead-cell fraction: 0.313
Flavopiridol; 0.0001 µM
  increase in dead-cell fraction: -0.0044
Flavopiridol; 0.0003162 µM
  increase in dead-cell fraction: 0.0084
Flavopiridol; 0.001 µM
  increase in dead-cell fraction: -0.004
Flavopiridol; 0.003162 µM
  increase in dead-cell fraction: -0.0097
Flavopiridol; 0.01 µM
  increase in dead-cell fraction: 0.0094
Flavopiridol; 0.03162 µM
  increase in dead-cell fraction: 0.002
Flavopiridol; 0.1 µM
  increase in dead-cell fraction: 0.0269
Flavopiridol; 0.3162 µM
  increase in dead-cell fraction: 0.0941
Flavopiridol; 1 µM
  increase in dead-cell fraction: 0.274

— the supplement of paper PMC9663587
